Measured values: the NIST ThermoML archive (doi:10.1021/je900722m)
Numbers after ± are expanded uncertainties.

Details: 101.33 kPa, Liquid

mass density (303.15 K) [kg/m3] | viscosity (303.15 K) [mPa·s] | mass density (308.15 K) [kg/m3] | viscosity (308.15 K) [mPa·s] | mass density (313.15 K) [kg/m3] | viscosity (313.15 K) [mPa·s] | mass density (318.15 K) [kg/m3] | viscosity (318.15 K) [mPa·s] | mass density (323.15 K) [kg/m3] | viscosity (323.15 K) [mPa·s] | mass density (328.15 K) [kg/m3] | viscosity (328.15 K) [mPa·s] | mass density (333.15 K) [kg/m3] | viscosity (333.15 K) [mPa·s] | mass density (338.15 K) [kg/m3] | viscosity (338.15 K) [mPa·s] | mass density (343.15 K) [kg/m3] | viscosity (343.15 K) [mPa·s] | Compound
798.351 ± 0.48 | 2.607 ± 0.045 | 794.052 ± 0.48 | 2.163 ± 0.037 | 789.658 ± 0.49 | 1.84 ± 0.032 | 785.159 ± 0.5 | 1.557 ± 0.028 | 780.552 ± 0.51 | 1.333 ± 0.024 | 775.832 ± 0.51 | 1.151 ± 0.021 | 770.993 ± 0.52 | 1.002 ± 0.019 | 766.038 ± 0.53 | 0.8779 ± 0.017 | 760.962 ± 0.54 | 0.7769 ± 0.016 | CCC(C)O (stereo not given) [butan-2-ol]
– | – | 770.365 ± 0.5 | 2.69 ± 0.046 | 765.07 ± 0.51 | 2.142 ± 0.037 | 759.675 ± 0.52 | 1.737 ± 0.03 | 754.193 ± 0.53 | 1.428 ± 0.025 | 748.621 ± 0.54 | 1.196 ± 0.022 | 742.954 ± 0.55 | 1.016 ± 0.019 | 737.19 ± 0.56 | 0.8734 ± 0.017 | 731.313 ± 0.56 | 0.7603 ± 0.016 | CC(C)(C)O [2-methylpropan-2-ol]
802.213 ± 0.44 | 2.296 ± 0.039 | 798.343 ± 0.45 | 2.025 ± 0.035 | 794.425 ± 0.45 | 1.795 ± 0.031 | 790.465 ± 0.46 | 1.595 ± 0.028 | 786.456 ± 0.47 | 1.417 ± 0.025 | 782.399 ± 0.47 | 1.271 ± 0.023 | 778.281 ± 0.48 | 1.138 ± 0.021 | 774.098 ± 0.49 | 1.028 ± 0.019 | 769.845 ± 0.49 | 0.9306 ± 0.018 | CCCCO [butan-1-ol]
794.064 ± 0.46 | 2.649 ± 0.045 | 790.123 ± 0.46 | 2.28 ± 0.039 | 786.12 ± 0.47 | 1.965 ± 0.034 | 782.061 ± 0.48 | 1.692 ± 0.03 | 777.932 ± 0.48 | 1.482 ± 0.026 | 773.732 ± 0.49 | 1.268 ± 0.023 | 769.448 ± 0.5 | 1.116 ± 0.02 | 765.079 ± 0.51 | 0.9851 ± 0.019 | 760.611 ± 0.51 | 0.8767 ± 0.017 | CC(C)CO [2-methyl-1-propanol]
